Assay results from article PMC12446476 (Nature Communications, 2025).
Converted amounts (≈) assume the structure as drawn. Where two headings read alike, the source gives them in different places.

Test system: N. gonorrhoeae
Assay: MIC determination, agar dilution (CLSI)
Assay type: cell-based, Neisseria gonorrhoeae
Conditions: for MIC: Neisseria gonorrhoeae
Method in brief: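 For N. gonorrhoeae, WHO 2024 reference strains served as quality control, only whole doubling-dilution MICs were reported, and isolates were classified by EUCAST v14.0 breakpoints or ECOFF. Time-kill assays followed CLSI in Columbia broth with 1% IsoVitaleX, and viable counts came from plating serial dilutions on GC agar with IsoVitaleX.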

How did the MIC range (100 contemporary clinical N. gonorrhoeae isolates) turn out when `Cc1c(CN(C)C(=O)/C=C/c2cnc3c(c2)N[C@H](C)[C@H](O)C(=O)N3)oc2ccccc12` [Debio 1453] was run?
The MIC range was 0.008 to 0.125 µg/mL.

And the MIC range (2024 WHO N. gonorrhoeae reference strains)?
The MIC range was 0.03 to 0.125 µg/mL.

And the “increase in MIC” value (6804 clones with FabI L257F vs parent)?
Its value is 4 fold.

And the MIC (AR Bank0179-15 (AZM-R), mode of multiple measures, read-out: MIC)?
Its MIC is 0.03 µg/mL (≈ 0.0713 µM).

And the MIC (AR Bank0181-17 (AZM-R), mode of multiple measures, read-out: MIC)?
The MIC was 0.125 µg/mL (≈ 0.297 µM).

And the MIC (ATCC700825, read-out: MIC relevant for mutant selection assay, ATCC 700825)?
Its MIC is 0.016 µg/mL (≈ 0.0381 µM).

What about the MIC (WHO F, agar dilution, read-out: MIC) of the same molecule?
Its MIC is 0.03 µg/mL (≈ 0.0713 µM).

And the MIC (WHO H, agar dilution, read-out: MIC)?
Its MIC is 0.06 µg/mL (≈ 0.143 µM).

And the MIC (WHO K, agar dilution, read-out: MIC)?
The MIC was 0.06 µg/mL (≈ 0.143 µM).

What about the MIC (WHO L, agar dilution, read-out: MIC) of the same molecule?
Its MIC is 0.03 µg/mL (≈ 0.0713 µM).

And the MIC (WHO M, agar dilution, read-out: MIC)?
Its MIC is 0.06 µg/mL (≈ 0.143 µM).

And the MIC (WHO O, agar dilution, read-out: MIC)?
The MIC was 0.06 µg/mL (≈ 0.143 µM).

And the MIC (WHO P, agar dilution, read-out: MIC)?
The MIC was 0.125 µg/mL (≈ 0.297 µM).

And the MIC (WHO Q, agar dilution, read-out: MIC)?
Its MIC is 0.06 µg/mL (≈ 0.143 µM).

And the MIC (WHO R, agar dilution, read-out: MIC)?
Its MIC is 0.06 µg/mL (≈ 0.143 µM).

What about the MIC (WHO S2, agar dilution, read-out: MIC) of the same molecule?
Its MIC is 0.06 µg/mL (≈ 0.143 µM).

What about the MIC (WHO U, agar dilution, read-out: MIC) of the same molecule?
Its MIC is 0.125 µg/mL (≈ 0.297 µM).

And the MIC (WHO V, agar dilution, read-out: MIC)?
The MIC was 0.06 µg/mL (≈ 0.143 µM).

And the MIC (WHO X-07 (CIP-R, CRO-R), mode of multiple measures, read-out: MIC)?
The MIC was 0.125 µg/mL (≈ 0.297 µM).

And the MIC (WHO X, agar dilution, read-out: MIC)?
The MIC was 0.06 µg/mL (≈ 0.143 µM).

What about the MIC (WHO Y, agar dilution, read-out: MIC) of the same molecule?
The MIC was 0.06 µg/mL (≈ 0.143 µM).

And the MIC (WHO Z, agar dilution, read-out: MIC)?
Its MIC is 0.06 µg/mL (≈ 0.143 µM).

What about the MIC (clinical N. gonorrhoeae isolate 1, Sweden 2023, read-out: Minimum inhibitory concentration) of the same molecule?
Its MIC is 0.064 µg/mL (≈ 0.152 µM).

And the MIC (clinical N. gonorrhoeae isolate 2, Sweden 2023, read-out: Minimum inhibitory concentration)?
The MIC was 0.032 µg/mL (≈ 0.0761 µM).

And the MIC (clinical N. gonorrhoeae isolate 3, Sweden 2023, read-out: Minimum inhibitory concentration)?
The MIC was 0.064 µg/mL (≈ 0.152 µM).

And the MIC (clinical N. gonorrhoeae isolate 4, Sweden 2023, read-out: Minimum inhibitory concentration)?
Its MIC is 0.032 µg/mL (≈ 0.0761 µM).

What about the MIC (clinical N. gonorrhoeae isolate 5, Sweden 2023, read-out: Minimum inhibitory concentration) of the same molecule?
The MIC was 0.064 µg/mL (≈ 0.152 µM).

And the MIC (clinical N. gonorrhoeae isolate 6, Sweden 2023, read-out: Minimum inhibitory concentration)?
Its MIC is 0.032 µg/mL (≈ 0.0761 µM).

And the MIC (clinical N. gonorrhoeae isolate 7, Sweden 2023, read-out: Minimum inhibitory concentration)?
Its MIC is 0.064 µg/mL (≈ 0.152 µM).

And the MIC (clinical N. gonorrhoeae isolate 8, Sweden 2023, read-out: Minimum inhibitory concentration)?
The MIC was 0.064 µg/mL (≈ 0.152 µM).

What about the MIC (clinical N. gonorrhoeae isolate 9, Sweden 2023, read-out: Minimum inhibitory concentration) of the same molecule?
The MIC was 0.064 µg/mL (≈ 0.152 µM).

And the MIC (clinical N. gonorrhoeae isolate 10, Sweden 2023, read-out: Minimum inhibitory concentration)?
Its MIC is 0.064 µg/mL (≈ 0.152 µM).

And the MIC (clinical N. gonorrhoeae isolate 11, Sweden 2023, read-out: Minimum inhibitory concentration)?
Its MIC is 0.064 µg/mL (≈ 0.152 µM).

And the MIC (clinical N. gonorrhoeae isolate 12, Sweden 2023, read-out: Minimum inhibitory concentration)?
Its MIC is 0.032 µg/mL (≈ 0.0761 µM).

What about the MIC (clinical N. gonorrhoeae isolate 13, Sweden 2023, read-out: Minimum inhibitory concentration) of the same molecule?
The MIC was 0.064 µg/mL (≈ 0.152 µM).

What about the MIC (clinical N. gonorrhoeae isolate 14, Sweden 2023, read-out: Minimum inhibitory concentration) of the same molecule?
Its MIC is 0.032 µg/mL (≈ 0.0761 µM).

What about the MIC (clinical N. gonorrhoeae isolate 15, Sweden 2023, read-out: Minimum inhibitory concentration) of the same molecule?
Its MIC is 0.064 µg/mL (≈ 0.152 µM).

And the MIC (clinical N. gonorrhoeae isolate 16, Sweden 2023, read-out: Minimum inhibitory concentration)?
The MIC was 0.064 µg/mL (≈ 0.152 µM).

What about the MIC (clinical N. gonorrhoeae isolate 17, Sweden 2023, read-out: Minimum inhibitory concentration) of the same molecule?
Its MIC is 0.064 µg/mL (≈ 0.152 µM).

What about the MIC (clinical N. gonorrhoeae isolate 18, Sweden 2023, read-out: Minimum inhibitory concentration) of the same molecule?
The MIC was 0.064 µg/mL (≈ 0.152 µM).

What about the MIC (clinical N. gonorrhoeae isolate 19, Sweden 2023, read-out: Minimum inhibitory concentration) of the same molecule?
Its MIC is 0.064 µg/mL (≈ 0.152 µM).

What about the MIC (clinical N. gonorrhoeae isolate 20, Sweden 2023, read-out: Minimum inhibitory concentration) of the same molecule?
Its MIC is 0.064 µg/mL (≈ 0.152 µM).

What about the MIC (clinical N. gonorrhoeae isolate 21, Sweden 2023, read-out: Minimum inhibitory concentration) of the same molecule?
The MIC was 0.064 µg/mL (≈ 0.152 µM).

What about the MIC (clinical N. gonorrhoeae isolate 22, Sweden 2023, read-out: Minimum inhibitory concentration) of the same molecule?
The MIC was 0.125 µg/mL (≈ 0.297 µM).

And the MIC (clinical N. gonorrhoeae isolate 23, Sweden 2023, read-out: Minimum inhibitory concentration)?
The MIC was 0.064 µg/mL (≈ 0.152 µM).

And the MIC (clinical N. gonorrhoeae isolate 24, Sweden 2023, read-out: Minimum inhibitory concentration)?
The MIC was 0.125 µg/mL (≈ 0.297 µM).

And the MIC (clinical N. gonorrhoeae isolate 25, Sweden 2023, read-out: Minimum inhibitory concentration)?
Its MIC is 0.064 µg/mL (≈ 0.152 µM).

What about the MIC (clinical N. gonorrhoeae isolate 26, Sweden 2023, read-out: Minimum inhibitory concentration) of the same molecule?
The MIC was 0.032 µg/mL (≈ 0.0761 µM).

And the MIC (clinical N. gonorrhoeae isolate 27, Sweden 2023, read-out: Minimum inhibitory concentration)?
The MIC was 0.064 µg/mL (≈ 0.152 µM).

And the MIC (clinical N. gonorrhoeae isolate 28, Sweden 2023, read-out: Minimum inhibitory concentration)?
Its MIC is 0.064 µg/mL (≈ 0.152 µM).

And the MIC (clinical N. gonorrhoeae isolate 29, Sweden 2023, read-out: Minimum inhibitory concentration)?
Its MIC is 0.064 µg/mL (≈ 0.152 µM).

And the MIC (clinical N. gonorrhoeae isolate 30, Sweden 2023, read-out: Minimum inhibitory concentration)?
The MIC was 0.125 µg/mL (≈ 0.297 µM).

And the MIC (clinical N. gonorrhoeae isolate 31, Sweden 2023, read-out: Minimum inhibitory concentration)?
The MIC was 0.064 µg/mL (≈ 0.152 µM).

And the MIC (clinical N. gonorrhoeae isolate 32, Sweden 2023, read-out: Minimum inhibitory concentration)?
Its MIC is 0.016 µg/mL (≈ 0.0381 µM).

And the MIC (clinical N. gonorrhoeae isolate 33, Sweden 2023, read-out: Minimum inhibitory concentration)?
Its MIC is 0.064 µg/mL (≈ 0.152 µM).

And the MIC (clinical N. gonorrhoeae isolate 34, Sweden 2023, read-out: Minimum inhibitory concentration)?
The MIC was 0.064 µg/mL (≈ 0.152 µM).

And the MIC (clinical N. gonorrhoeae isolate 35, Sweden 2023, read-out: Minimum inhibitory concentration)?
The MIC was 0.032 µg/mL (≈ 0.0761 µM).

And the MIC (clinical N. gonorrhoeae isolate 36, Sweden 2023, read-out: Minimum inhibitory concentration)?
The MIC was 0.016 µg/mL (≈ 0.0381 µM).

What about the MIC (clinical N. gonorrhoeae isolate 37, Sweden 2023, read-out: Minimum inhibitory concentration) of the same molecule?
The MIC was 0.064 µg/mL (≈ 0.152 µM).

And the MIC (clinical N. gonorrhoeae isolate 38, Sweden 2023, read-out: Minimum inhibitory concentration)?
The MIC was 0.064 µg/mL (≈ 0.152 µM).

What about the MIC (clinical N. gonorrhoeae isolate 39, Sweden 2023, read-out: Minimum inhibitory concentration) of the same molecule?
Its MIC is 0.008 µg/mL (≈ 0.019 µM).

And the MIC (clinical N. gonorrhoeae isolate 40, Sweden 2023, read-out: Minimum inhibitory concentration)?
The MIC was 0.064 µg/mL (≈ 0.152 µM).

And the MIC (clinical N. gonorrhoeae isolate 41, Sweden 2023, read-out: Minimum inhibitory concentration)?
Its MIC is 0.125 µg/mL (≈ 0.297 µM).

And the MIC (clinical N. gonorrhoeae isolate 42, Sweden 2023, read-out: Minimum inhibitory concentration)?
The MIC was 0.032 µg/mL (≈ 0.0761 µM).

What about the MIC (clinical N. gonorrhoeae isolate 43, Sweden 2023, read-out: Minimum inhibitory concentration) of the same molecule?
The MIC was 0.064 µg/mL (≈ 0.152 µM).

What about the MIC (clinical N. gonorrhoeae isolate 44, Sweden 2023, read-out: Minimum inhibitory concentration) of the same molecule?
The MIC was 0.032 µg/mL (≈ 0.0761 µM).

And the MIC (clinical N. gonorrhoeae isolate 45, Sweden 2023, read-out: Minimum inhibitory concentration)?
The MIC was 0.032 µg/mL (≈ 0.0761 µM).

What about the MIC (clinical N. gonorrhoeae isolate 46, Sweden 2023, read-out: Minimum inhibitory concentration) of the same molecule?
The MIC was 0.032 µg/mL (≈ 0.0761 µM).

And the MIC (clinical N. gonorrhoeae isolate 47, Sweden 2023, read-out: Minimum inhibitory concentration)?
Its MIC is 0.064 µg/mL (≈ 0.152 µM).

What about the MIC (clinical N. gonorrhoeae isolate 48, Sweden 2023, read-out: Minimum inhibitory concentration) of the same molecule?
The MIC was 0.016 µg/mL (≈ 0.0381 µM).

What about the MIC (clinical N. gonorrhoeae isolate 49, Sweden 2023, read-out: Minimum inhibitory concentration) of the same molecule?
Its MIC is 0.032 µg/mL (≈ 0.0761 µM).

And the MIC (clinical N. gonorrhoeae isolate 50, Sweden 2023, read-out: Minimum inhibitory concentration)?
The MIC was 0.064 µg/mL (≈ 0.152 µM).

And the MIC (clinical N. gonorrhoeae isolate 51, Sweden 2023, read-out: Minimum inhibitory concentration)?
Its MIC is 0.016 µg/mL (≈ 0.0381 µM).

What about the MIC (clinical N. gonorrhoeae isolate 52, Sweden 2023, read-out: Minimum inhibitory concentration) of the same molecule?
The MIC was 0.125 µg/mL (≈ 0.297 µM).

What about the MIC (clinical N. gonorrhoeae isolate 53, Sweden 2023, read-out: Minimum inhibitory concentration) of the same molecule?
The MIC was 0.064 µg/mL (≈ 0.152 µM).

What about the MIC (clinical N. gonorrhoeae isolate 54, Sweden 2023, read-out: Minimum inhibitory concentration) of the same molecule?
Its MIC is 0.064 µg/mL (≈ 0.152 µM).

What about the MIC (clinical N. gonorrhoeae isolate 55, Sweden 2023, read-out: Minimum inhibitory concentration) of the same molecule?
The MIC was 0.064 µg/mL (≈ 0.152 µM).

What about the MIC (clinical N. gonorrhoeae isolate 56, Sweden 2023, read-out: Minimum inhibitory concentration) of the same molecule?
Its MIC is 0.008 µg/mL (≈ 0.019 µM).

And the MIC (clinical N. gonorrhoeae isolate 57, Sweden 2023, read-out: Minimum inhibitory concentration)?
Its MIC is 0.032 µg/mL (≈ 0.0761 µM).

And the MIC (clinical N. gonorrhoeae isolate 58, Sweden 2023, read-out: Minimum inhibitory concentration)?
The MIC was 0.064 µg/mL (≈ 0.152 µM).

What about the MIC (clinical N. gonorrhoeae isolate 59, Sweden 2023, read-out: Minimum inhibitory concentration) of the same molecule?
The MIC was 0.064 µg/mL (≈ 0.152 µM).

And the MIC (clinical N. gonorrhoeae isolate 60, Sweden 2023, read-out: Minimum inhibitory concentration)?
Its MIC is 0.064 µg/mL (≈ 0.152 µM).
